Measured values: patent publication US20100286145A1, “ISOPHTHALAMIDE DERIVATIVES INHIBITING BETA-SECRETASE ACTIVITY” (CoMentis, Inc., priority 2007, published 2010)
Read-outs that look alike come from different tables or passages of the source.

What was measured:
memapsin 2 = memapsin 2 (Homo sapiens, UniProt P56817); assay: Inhibition of memapsin 2 beta-secretase activity (fluorogenic substrate FS-2); type: biochemical; conditions: memapsin 2, pH 4, 37° C., fluorogenic substrate FS-2; read-out: M2Ki
Chain of memapsin 2 (P56817 46-501): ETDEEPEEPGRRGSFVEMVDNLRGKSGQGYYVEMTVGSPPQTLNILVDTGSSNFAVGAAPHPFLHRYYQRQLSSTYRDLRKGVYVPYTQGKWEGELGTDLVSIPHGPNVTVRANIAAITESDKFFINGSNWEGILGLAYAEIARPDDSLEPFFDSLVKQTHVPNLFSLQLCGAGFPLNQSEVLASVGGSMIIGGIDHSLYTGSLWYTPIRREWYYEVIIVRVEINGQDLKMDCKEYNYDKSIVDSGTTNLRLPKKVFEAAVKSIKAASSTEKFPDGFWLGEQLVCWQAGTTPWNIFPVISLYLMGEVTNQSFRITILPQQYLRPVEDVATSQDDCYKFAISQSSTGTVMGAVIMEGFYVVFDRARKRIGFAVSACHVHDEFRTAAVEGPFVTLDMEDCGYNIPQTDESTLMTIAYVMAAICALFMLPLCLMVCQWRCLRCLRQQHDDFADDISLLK
Summary of the method: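 Memapsin 2 pre-incubated 20 min with compound at pH 4, 37° C, then FS-2 substrate (MCA-SEVNLDAEFK-DNP, APP Swedish cleavage site) added. Rate of fluorescence increase compared with uninhibited controls, fitted to a tight-binding inhibition model.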

[1] = system: Aβ production in Chinese hamster ovary cells that over-express human APP695 with the London and Swedish mutations; assay: Cellular Aβ IC50 determination (Aβ40 sandwich ELISA); type: cell-based; conditions: Cricetulus griseus
Summary of the method: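 CHO cells overexpressing human APP695 with London and Swedish mutations, seeded at 10% confluency, treated with compounds up to about 4 μM final (0.4% DMSO). Secreted Aβ40 measured by sandwich ELISA relative to control and fitted to a 4-parameter IC50 model.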

[2] = cellular Aβ production, read-out: IC50

Row | Structure (SMILES) | Ki (memapsin 2) [nM] | IC50 [1, 2] [nM] | IC50 [1] [nM]
1 | Cc1csc(CN(C)C(=O)c2cccc(C(=O)N[C@@H](Cc3ccccc3)[C@H](O)CNCc3cc(C(C)C)cc(S(=O)(=O)C(C)C)c3)c2)n1 [Compound 229, N1-((2S,3R)-3-hydroxy-4-(3-isopropyl-5-(isopropylsulfonyl)benzylamino)-1-phenylbutan-2-yl)-N3-methyl-N3-((4-methylthiazol-2-yl)methyl)isophthalamide] | < 300 | > 5000 | 
2 | COc1cccc(CNC[C@@H](O)[C@H](Cc2ccccc2)NC(=O)c2cc(C(=O)N(C)Cc3nc(C)cs3)cc(N3CCCCC3)c2)c1 [Compound 230, N1-((2S,3R)-3-hydroxy-4-(3-methoxybenzylamino)-1-phenylbutan-2-yl)-N3-methyl-N3-((4-methylthiazol-2-yl)methyl)-5-(piperidin-1-yl)isophthalamide] | < 300 | < 1000 | 
3 | Cc1csc(CN(C)C(=O)c2cc(C(=O)N[C@@H](Cc3ccccc3)[C@H](O)CNCc3cncc(C(C)C)c3)cc(N3CCCCC3)c2)n1 [Compound 231, N1-((2S,3R)-3-hydroxy-4-((5-isopropylpyridin-3-yl)methylamino)-1-phenylbutan-2-yl)-N3-methyl-N3-((4-methylthiazol-2-yl)methyl)-5-(piperidin-1-yl)isophthalamide] | < 300 | > 5000 | 
4 | Cc1cc(C(=O)N[C@@H](Cc2ccccc2)[C@H](O)CNCc2cccc(C(F)(F)F)c2)cc(C(=O)N(C)Cc2nc(C)cs2)c1 [Compound 232, N1-((2S,3R)-3-hydroxy-1-phenyl-4-(3-(trifluoromethyl)benzylamino)butan-2-yl)-N3,5-dimethyl-N3-((4-methylthiazol-2-yl)methyl)isophthalamide] | < 300 | < 1000 | 
5 | Cc1csc(CN(C)C(=O)c2cc(C(=O)N[C@@H](Cc3ccccc3)[C@H](O)CNCc3cccc(C(F)(F)F)c3)cc(N3CCCC3=O)c2)n1 [Compound 233, N1-((2S,3R)-3-hydroxy-1-phenyl-4-(3-(trifluoromethyl)benzylamino)butan-2-yl)-N3-methyl-N3-((4-methylthiazol-2-yl)methyl)-5-(2-oxopyrrolidin-1-yl)isophthalamide] | < 300 | < 1000 | 
6 | Cc1csc(CN(C)C(=O)c2cccc(C(=O)N[C@@H](Cc3ccccc3)[C@H](O)CNCc3cc(OC(=O)N4CCOCC4)cc(C(C)C)c3)c2)n1 [Compound 234, 3-(((2R,3S)-2-hydroxy-3-(3-(methyl((4-methylthiazol-2-yl)methyl)carbamoyl)benzamido)-4-phenylbutylamino)methyl)-5-isopropylphenyl morpholine-4-carboxylate] | < 300 |  | < 1000
7 | Cc1noc(CN(C)C(=O)c2cccc(C(=O)N[C@@H](Cc3ccccc3)[C@H](O)CNCc3cncc(C(C)C)c3)c2)n1 [Compound 235, N1-((2S,3R)-3-hydroxy-4-((5-isopropylpyridin-3-yl)methylamino)-1-phenylbutan-2-yl)-N3-methyl-N3-((3-methyl-1,2,4-oxadiazol-5-yl)methyl)isophthalamide] | < 300 | < 1000 | 
8 | Cc1csc(CN(C)C(=O)c2cccc(C(=O)N[C@@H](Cc3ccccc3)[C@H](O)CNCc3cc(Cl)cc(Cl)c3)c2)n1 [Compound 236, N1-((2S,3R)-4-(3,5-dichlorobenzylamino)-3-hydroxy-1-phenylbutan-2-yl)-N3-methyl-N3-((4-methylthiazol-2-yl)methyl)isophthalamide] | < 300 | < 1000 | 
9 | CC(=O)c1cc(C(=O)N[C@@H](Cc2ccccc2)[C@H](O)CNCc2cncc(C(C)C)c2)cc(C(=O)N(C)Cc2nc(C)cs2)c1 [Compound 237, 5-acetyl-N1-((2S,3R)-3-hydroxy-4-((5-isopropylpyridin-3-yl)methylamino)-1-phenylbutan-2-yl)-N3-methyl-N3-((4-methylthiazol-2-yl)methyl)isophthalamide] | < 300 | < 1000 | 
10 | COc1cccc(CNC[C@@H](O)[C@H](Cc2ccccc2)NC(=O)c2cc(C(=O)N(C)Cc3nc(C)cs3)cc(-n3cccc3)c2)c1 [Compound 238, N1-((2S,3R)-3-hydroxy-4-(3-methoxybenzylamino)-1-phenylbutan-2-yl)-N3-methyl-N3-((4-methylthiazol-2-yl)methyl)-5-(1H-pyrrol-1-yl)isophthalamide] | < 300 | < 1000 | 
11 | Cc1csc(CN(C)C(=O)c2cc(C(=O)N[C@@H](Cc3ccccc3)[C@H](O)CNCc3cncc(C(C)C)c3)cc(-n3cccc3)c2)n1 [Compound 239, N1-((2S,3R)-3-hydroxy-4-((5-isopropylpyridin-3-yl)methylamino)-1-phenylbutan-2-yl)-N3-methyl-N3-((4-methylthiazol-2-yl)methyl)-5-(1H-pyrrol-1-yl)isophthalamide] | < 300 | < 1000 | 
12 | Cc1nc(CN(C)C(=O)c2cccc(C(=O)N[C@@H](Cc3ccccc3)[C@H](O)CNCc3cncc(C(C)C)c3)c2)no1 [Compound 240, N1-((2S,3R)-3-hydroxy-4-((5-isopropylpyridin-3-yl)methylamino)-1-phenylbutan-2-yl)-N3-methyl-N3-((5-methyl-1,2,4-oxadiazol-3-yl)methyl)isophthalamide] | 301 to 500 | 1000 to 5000 | 
13 | COc1cccc(CNC[C@@H](O)[C@H](Cc2ccccc2)NC(=O)c2cc(C(=O)N(C)Cc3nc(C)cs3)cc(N3CCC(O)C3)c2)c1 (stereo partly drawn) [Compound 241, N1-((2S,3R)-3-hydroxy-4-(3-methoxybenzylamino)-1-phenylbutan-2-yl)-5-(3-hydroxypyrrolidin-1-yl)-N3-methyl-N3-((4-methylthiazol-2-yl)methyl)isophthalamide] | < 300 | 1000 to 5000 | 
14 | Cc1csc(CN(C)C(=O)c2cc(C(=O)N[C@@H](Cc3ccccc3)[C@H](O)CNCc3cncc(C(C)C)c3)cc(N3CCC(O)C3)c2)n1 (stereo partly drawn) [Compound 242, N1-((2S,3R)-3-hydroxy-4-((5-isopropylpyridin-3-yl)methylamino)-1-phenylbutan-2-yl)-5-(3-hydroxypyrrolidin-1-yl)-N3-methyl-N3-((4-methylthiazol-2-yl)methyl)isophthalamide] | < 300 | < 1000 | 
15 | CC(=O)Oc1cc(CNC[C@@H](O)[C@H](Cc2ccccc2)NC(=O)c2cccc(C(=O)N(C)Cc3nc(C)cs3)c2)cc(C(C)C)c1 [Compound 243, 3-(((2R,3S)-2-hydroxy-3-(3-(methyl((4-methylthiazol-2-yl)methyl)carbamoyl)benzamido)-4-phenylbutylamino)methyl)-5-isopropylphenyl acetate] | < 300 | < 1000 | 
16 | CC(=O)c1cc(C(=O)N[C@@H](Cc2ccccc2)[C@H](O)CNCc2cccc(C(F)(F)F)c2)cc(C(=O)N(C)Cc2nc(C)cs2)c1 [Compound 244, 5-acetyl-N1-((2S,3R)-3-hydroxy-1-phenyl-4-(3-(trifluoromethyl)benzylamino)butan-2-yl)-N3-methyl-N3-((4-methylthiazol-2-yl)methyl)isophthalamide] | < 300 | < 1000 | 
17 | Cc1csc(CN(C)C(=O)c2cc(C(=O)N[C@@H](Cc3ccccc3)[C@H](O)CNCc3cncc(C(C)(F)F)c3)cc(C(F)F)c2)n1 [Compound 245, N1-((2S,3R)-4-((5-(1,1-difluoroethyl)pyridin-3-yl)methylamino)-3-hydroxy-1-phenylbutan-2-yl)-5-(difluoromethyl)-N3-methyl-N3-((4-methylthiazol-2-yl)methyl)isophthalamide] | < 300 | < 1000 | 
18 | Cc1csc(CN(C)C(=O)c2cccc(C(=O)N[C@@H](Cc3ccccc3)[C@H](O)CNCc3cc(C#N)cc(C(C)C)c3)c2)n1 [Compound 248, N1-((2S,3R)-4-(3-cyano-5-isopropylbenzylamino)-3-hydroxy-1-phenylbutan-2-yl)-N3-methyl-N3-((4-methylthiazol-2-yl)methyl)isophthalamide] | < 300 | < 1000 | 
19 | Cc1csc(CN(C)C(=O)c2ccc(C)c(C(=O)N[C@@H](Cc3ccccc3)[C@H](O)CNCc3cncc(C(C)C)c3)c2)n1 [Compound 249, N3-((2S,3R)-3-hydroxy-4-((5-isopropylpyridin-3-yl)methylamino)-1-phenylbutan-2-yl)-N1,4-dimethyl-N1-((4-methylthiazol-2-yl)methyl)isophthalamide] | > 501 | > 5000 | 
20 | Cc1csc(CN(C)C(=O)c2cc(C(=O)N[C@@H](Cc3ccccc3)[C@H](O)CNCc3cncc(C(C)(C)F)c3)cc(-n3cccc3)c2)n1 [Compound 250, N1-((2S,3R)-4-((5-(2-fluoropropan-2-yl)pyridin-3-yl)methylamino)-3-hydroxy-1-phenylbutan-2-yl)-N3-methyl-N3-((4-methylthiazol-2-yl)methyl)-5-(1H-pyrrol-1-yl)isophthalamide] | < 300 | < 1000 | 
21 | CNS(=O)(=O)c1cc(CNC[C@@H](O)[C@H](Cc2ccccc2)NC(=O)c2cccc(C(=O)N(C)Cc3nc(C)cs3)c2)cc(C(C)C)c1 [Compound 251, N1-((2S,3R)-3-hydroxy-4-(3-isopropyl-5-(N-methylsulfamoyl)benzylamino)-1-phenylbutan-2-yl)-N3-methyl-N3-((4-methylthiazol-2-yl)methyl)isophthalamide] | < 300 | < 1000 | 
22 | Cc1csc(CN(C)C(=O)c2cc(C(=O)N[C@@H](Cc3ccccc3)[C@H](O)CNCc3cncc(C(C)C)c3)cc(-c3ccco3)c2)n1 [Compound 252, 5-(furan-2-yl)-N1-((2S,3R)-3-hydroxy-4-((5-isopropylpyridin-3-yl)methylamino)-1-phenylbutan-2-yl)-N3-methyl-N3-((4-methylthiazol-2-yl)methyl)isophthalamide] | < 300 | < 1000 | 
